Reference: ChEMBL document CHEMBL1156504, “Structural characterization of the human androgen receptor ligand-binding domain complexed with EM5744, a rationally designed steroidal ligand bearing a bulky chain directed toward helix 12” (J Biol Chem, 2007)
The source made the active and inactive calls. The calls are words filed in the database; no cut-off is given here.

Tests used:
[1] = species: Mus musculus; assay: Inhibition of 5-alpha-dihydrotestosterone-stimulated growth of mouse Shionogi cells at 1 uM; format: functional
[2] = species: Mus musculus; assay: Induction of proliferation of mouse Shionogi cells at 10 pM; format: functional

| Compound | Activity [1] | Activity [2] |
| --- | --- | --- |
| C[C@]12CCC(=O)C[C@@H]1CC[C@@H]1[C@@H]2CC[C@]2(CCOCc3cc(F)cc(F)c3)[C@@H](O)CC[C@@H]12 | inactive | Active |
| C[C@]12CCC(=O)C[C@@H]1CC[C@@H]1[C@@H]2CC[C@]2(C)[C@@H](O)CC[C@@H]12 |  | Active |
